{
  "source": "patent US20040170601A1",
  "about": "“Method of improving the growth performance of an animal” (priority 2001, published 2004)",
  "tested_on": "haemorrhagic E. coli",
  "test": "Example 6: haemorrhagic E. coli challenge of weaner pigs",
  "format": "in vivo",
  "parameters": "decrease in faecal shedding (total faecal culture scores) compared to saline treated controls / reduction in clinical signs compared to saline controls / reduction in E. coli culture scores at post-mortem compared to saline controls / reduction of bacterial load in the small intestine (foregut) compared with saline controls: concentration or dose not given beside the values",
  "description": "Male weaner pigs, with a mean weight of 5.4 kg were allocated to groups of 8, with the mean weight being equalised between groups. Pigs were housed in group pens. Pigs were provided with pelleted feed and water ad libitum.\nPigs were treated with cytokines or the antibiotic, Apralan, and challenged with E. coli according to the schedule outlined in FIG. 42. E. coli were delivered orally in an 8 ml dose containing 10^8 cfu/ml. Blood was sampled from pigs by venipuncture at −2 days, day 0, and +6 days from initial challenge with E. coli as outlined in FIG. 42. Blood was assayed for immunological parameters as previously described. Pigs were weighed at day −2 and at the end of the trial on day 7.\nFaecal samples were taken from each pig daily from day 2 to day 6 after challenge; these samples were cultured on sheep blood agar to quantify E. coli load. The condition of faeces on each day of challenge was noted as normal, wet or diarrhoea, as an indication of clinical signs.\nAt the conclusion of the experiment, pigs were euthanased and samples were taken from different areas in the gastro-intestinal tract, including the small intestine (25%, 50% and 75% along the length of the small intestine), the caecum and colon, and from the faeces. These post-mortem samples were also plated out on sheep blood agar to quantify E. coli load. Growth on sheep blood agar was scored from 0 to 5 (where 0 was no growth, 1 signified growth in the primary inoculum, 2 signified growth in the first streak, 3 signified growth in the 2nd streak, 4 signified growth in the 3rd streak, and 5 signified growth of E. coli in the final streak), and group means and standard errors were calculated.",
  "note": "Entries after “also recorded” stand apart in the source; their conditions may differ.",
  "data": [
    {"smiles": "CN[C@@H]1[C@@H](O[C@H]2O[C@H](CO)[C@@H](N)[C@H](O)[C@H]2O)OC2C[C@@H](N)[C@@H](O[C@H]3[C@H](O)[C@@H](O)[C@H](N)C[C@@H]3N)OC2[C@@H]1O", "note": "(stereo partly drawn) [Apralan, reference compound]", "values": [
      {"measurement": "clinical signs (wet faeces or diarrhoea)", "setting": "5 days after challenge", "result": "less recordings of wet faeces than did saline controls, but also displayed a minor increase in the prevalence of diarrhoea"},
      {"measurement": "E. coli shedding in faeces (faecal culture)", "setting": "day 2 to day 6 after challenge", "result": "decreased E. coli shedding in faeces; also recorded: least bacterial shedding of all treatments"},
      {"measurement": "decrease in faecal shedding (total faecal culture scores) compared to saline treated controls", "setting": "entire challenge period", "result": 80, "unit": "%"},
      {"measurement": "appetite (daily feed intake per pig) during E. coli challenge", "setting": "pig, in vivo", "result": "improved appetite compared to saline treated pigs"},
      {"measurement": "bacterial load in areas of the gastro-intestinal tract at post-mortem", "setting": "pig, in vivo", "result": "reduced bacterial load in most areas of the gastro-intestinal tract"},
      {"measurement": "group mean total E. coli culture score at post-mortem (out of a possible 30)", "setting": "pig, in vivo", "result": 12},
      {"measurement": "reduction in clinical signs compared to saline controls", "setting": "pig, in vivo", "result": 27, "unit": "%"},
      {"measurement": "bacterial loads in the hindgut area (caecum and colon)", "setting": "post-mortem", "result": "lowest of all treatments"},
      {"measurement": "reduction of bacterial load in the small intestine (foregut) compared with saline controls", "setting": "post-mortem", "result": 32, "unit": "%"}
    ]}
  ]
}
